One test relates to GCPII. The following applies: cited from earlier work; for pIC50: listed by ChEMBL ID or PDB ID, read-out: GCPII IC50 (Fig. S20, inhibitors with subnanomolar activities); for IC50: dataset of 54 GCPII ligands compiled from the PDB, read-out: IC50[nM] (54 actives, PDB ID).
In another test the target is T1, Recombinant human GCPII (Homo sapiens, UniProt Q04609).
T1 construct: made in house
The experiment in a line: In vitro GCPII inhibition assay, fluorescence-based, RP-HPLC readout (screening at 20 μM and IC50). The class given is biochemical. The following applies: for inhibition at 20 µM: read-out: Inhibition [%] of GCPII activity. The protocol:
The inhibitory potency of the selected compounds against GCPII was determined using a fluorescence-based assay developed in-house. Recombinant human GCPII purified as described previously[40],[41] (final concentration 0.02 nM) was preincubated with 20 μM test compound for the screening in 50 mM Tris-HCl, 150 mM NaCl, 0.001% C12E8 at 37 °C for 10 min. The reaction was initiated by the addition of 100 nM Glu-Glu dipeptide labeled with fluorescein (substrate)[42] in a total volume of 50 μL. Following 15 min incubation, the reaction was terminated by the addition of 5 μL of 0.1% TFA in 5% acetonitrile. […] The data were fitted using the GraphPad Prism software, and IC50 values were calculated from the inhibition curves of two independent experiments using a nonlinear analysis protocol.

Where [1] appears, read: compound at 20 μM, 100 nM fluorescein-labeled Glu-Glu dipeptide substrate.

Data on 64 compounds can be found in PMC9976286, “Combination of In Silico and In Vitro Screening to Identify Novel Glutamate Carboxypeptidase II Inhibitors” (Journal of Chemical Information and Modeling, 2023).

Structures are written as SMILES. pIC50: −log10 of the molar value. Where two headings read alike, the source gives them in different places.

T1 sequence (Q04609 whole entry): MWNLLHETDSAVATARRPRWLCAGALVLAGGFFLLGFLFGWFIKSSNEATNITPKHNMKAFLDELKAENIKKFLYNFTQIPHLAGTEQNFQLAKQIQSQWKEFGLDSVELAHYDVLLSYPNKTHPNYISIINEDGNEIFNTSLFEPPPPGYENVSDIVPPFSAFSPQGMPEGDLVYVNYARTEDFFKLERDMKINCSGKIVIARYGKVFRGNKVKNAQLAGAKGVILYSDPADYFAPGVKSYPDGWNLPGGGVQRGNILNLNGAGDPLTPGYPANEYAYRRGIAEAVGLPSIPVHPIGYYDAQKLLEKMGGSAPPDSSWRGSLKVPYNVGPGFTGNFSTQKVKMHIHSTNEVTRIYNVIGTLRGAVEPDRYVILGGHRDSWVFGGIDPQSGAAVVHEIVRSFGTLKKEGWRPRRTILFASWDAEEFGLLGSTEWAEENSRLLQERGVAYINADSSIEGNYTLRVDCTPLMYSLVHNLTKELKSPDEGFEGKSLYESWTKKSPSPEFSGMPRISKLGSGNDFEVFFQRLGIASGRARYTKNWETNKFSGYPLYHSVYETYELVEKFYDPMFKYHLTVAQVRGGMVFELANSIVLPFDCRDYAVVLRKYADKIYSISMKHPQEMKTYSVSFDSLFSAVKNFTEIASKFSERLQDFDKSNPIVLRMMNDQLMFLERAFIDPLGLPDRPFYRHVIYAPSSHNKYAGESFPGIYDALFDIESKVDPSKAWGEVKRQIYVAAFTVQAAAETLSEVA

`O=C(O)CCC(CP(=O)(O)O)C(=O)O` (stereo not shown) [CHEMBL47009]: in the test on GCPII, the pIC50 is […]. Take `O=C(O)CC[C@H](NP(=O)(O)O)C(=O)O` [CHEMBL241779]: in the test with GCPII, the negative-log IC50 (pIC50) was 9.07. Regarding `N[C@@H](CCC(=O)N[C@@H](COP(=O)(O)O[C@@H](CCC(=O)O)C(=O)O)C(=O)O)C(=O)O` [CHEMBL1289263], in the test on GCPII, the pIC50 was 9.26.

Regarding `O=C(O)CC[C@H](NP(=O)(O)OC[C@H](NC(=O)CC[C@H](NC(=O)CCCCCNC(=O)c1ccc(-c2c3ccc(=O)cc-3oc3cc(O)ccc23)c(C(=O)O)c1)C(=O)O)C(=O)O)C(=O)O` [CHEMBL1921899], the negative logarithm of the IC50 (pIC50) in the test with GCPII is 9.39.

For the compound `O=C(O)CC[C@H](NC(=O)N[C@@H](CCCC(=O)Nc1cccc(F)c1)C(=O)O)C(=O)O` [CHEMBL4277729], the pIC50 in the test on GCPII was 9.55. As for `CN(Cc1ccc(F)cc1)C(=O)CCC[C@H](NC(=O)N[C@@H](CCC(=O)O)C(=O)O)C(=O)O` [CHEMBL4283406], in the test on GCPII, the pIC50 was 9.19. Take `O=C(O)CC[C@H](NC(=O)N[C@@H](CCCC(=O)N(CCNC(=O)c1ccc(F)cc1)c1ccccc1)C(=O)O)C(=O)O` [CHEMBL4286872]: the negative-log IC50 (pIC50) in the test on GCPII was 9.82. Turning to `CN(C(=O)CCC[C@H](NC(=O)N[C@@H](CCC(=O)O)C(=O)O)C(=O)O)c1ccc(F)cc1` [CHEMBL4288368], in the test with GCPII, the negative logarithm of the IC50 (pIC50) is 9.70. `CN(Cc1cccc(F)c1)C(=O)CCC[C@H](NC(=O)N[C@@H](CCC(=O)O)C(=O)O)C(=O)O` [CHEMBL4291245]: the pIC50 in the test on GCPII is 9.34. In the case of `O=C(O)CC[C@H](NC(=O)N[C@@H](CCCC(=O)NCCNC(=O)c1ccc(F)cc1)C(=O)O)C(=O)O` [CHEMBL4294773], in the test with GCPII, the pIC50 was 9.03. For `O=C(O)CCNC(=O)C(F)(F)C(F)(F)C(=O)NCCC(=O)O` [Compound 1], at Recombinant human GCPII (setting [1]), the inhibition at 20 µM amounted to 0%. On to `N[C@@H](Cn1oc(=O)[nH]c1=O)C(=O)O` [Compound 2JBK], for which, in the test with GCPII, the 50% inhibitory concentration (IC50) was 9500 nM.

On to `O=C(O)CC[C@H](NC(=O)N[C@@H](CCCCn1cc(COCCOCCNc2ccc([N+](=O)[O-])cc2[N+](=O)[O-])nn1)C(=O)O)C(=O)O` [Compound 2XEI], for which the half-maximal inhibitory concentration (IC50) in the test on GCPII was 0.54 nM.

Consider `O=C(O)c1ccc(NC(=O)c2ccccc2C(=O)O)cc1O` [Compound 2], for which the inhibition at 20 µM on Recombinant human GCPII (setting [1]) was 0%. For `O=C(O)CC[C@H](C[P@@](=O)(O)CCC(=O)O)C(=O)O` [Compound 3BHX], the half-maximal inhibitory concentration (IC50) in the test with GCPII was 0.7 nM. On to `N[C@@H](CC[P@](=O)(O)C[C@@H](CCC(=O)O)C(=O)O)C(=O)O` [Compound 3BI0], for which, in the test on GCPII, the IC50 is 14 nM.

As for `CN(Cc1cnc2nc(N)nc(N)c2n1)c1ccc(C(=O)N[C@H](CC[P@@](=O)(O)C[C@@H](CCC(=O)O)C(=O)O)C(=O)O)cc1` [Compound 3BI1, (2S)-2-{[(R)-[(3R)-3-carboxy-3-{[(4-{[(2,4-diaminopteridin-6-yl)methyl](methyl)amino}phenyl)carbonyl]amino}propyl](hydroxy)phosphoryl]methyl}pentanedioic acid], the IC50 in the test with GCPII was 0.12 nM. In the case of `O=C(O)CC[C@H](NC(=O)N[C@@H](CSCc1ccc(F)cc1)C(=O)O)C(=O)O` [Compound 3D7D], the IC50 in the test on GCPII is 14 nM. Turning to `O=C(O)CC[C@H](NC(=O)N[C@@H](Cc1ccc(O)c(I)c1)C(=O)O)C(=O)O` [Compound 3D7F], the 50% inhibitory concentration (IC50) with GCPII was 0.5 nM. With `Cc1sc(NC(=O)CC(C)(C)CC(=O)Nc2sc(C)c(C)c2C(=O)O)c(C(=O)O)c1C` [Compound 3], the inhibition at 20 µM on Recombinant human GCPII (setting [1]) was found to be 11%. The same measure, in the same setting: the value for `COc1ccc(N(CCC(=O)O)CCC(=O)O)cc1OC` [Compound 4] was 2%.

Take `O=C(O)CSc1nnnn1-c1ccc(C(=O)O)cc1` [Compound 5]: the inhibition at 20 µM on Recombinant human GCPII (setting [1]) came to 3%. Still for that read-out and setting: in the case of `Cc1sc(NC(=O)c2cc(C(=O)O)ccc2C(=O)O)c(C#N)c1C` [Compound 6] it was 4%; in that of `O=C(O)CCN(CCC(=O)O)c1ccccc1O` [Compound 7], 12%. Same read-out and setting: the value for `COc1ccc([C@H](C)NC(=O)c2cc(C(=O)O)ccc2C(=O)O)cc1` [Compound 8] was 1%; that for `O=C(O)CCC(=O)Nc1cc(C(=O)O)ccc1Br` [Compound 9] was 0%. On the same count and under the same terms, the value for `O=C(O)CCCC(=O)Nc1ccc(C(=O)O)cc1` [Compound 10] was 0%; that for `O=C(O)c1cccc(NC(=O)[C@H]2CC=CC[C@H]2C(=O)O)c1` [Compound 11] was 0%; that for `COc1ccc(OC)c(NC(=O)c2ccc(C(=O)O)cc2C(=O)O)c1` [Compound 12] was 0%. With `COc1ccc(Cl)cc1NC(=O)c1ccc(C(=O)O)cc1C(=O)O` [Compound 13], at Recombinant human GCPII (setting [1]), the inhibition at 20 µM was determined as 0%. Same read-out and setting: the value for `O=C(O)c1ccccc1CN[C@@H](Cc1c[nH]c2ccccc12)C(=O)O` [Compound 14] was 0%; that for `N#Cc1c(NC(=O)c2ccc(C(=O)O)cc2C(=O)O)sc2c1CCCC2` [Compound 15] was 13%. Still for that read-out and setting: in the case of `CCOc1ccc(NC(=O)c2cc(C(=O)O)ccc2C(=O)O)cc1` [Compound 16] it was 0%. Take `O=C(O)CN[S@TB17](=O)(=O)c1ccc(C(=O)O)cc1` [Compound 19]: the inhibition at 20 µM on Recombinant human GCPII (setting [1]) stood at 0%.

On to `O=C(O)Cn1c(COCc2nc3ccccc3n2CC(=O)O)nc2ccccc21` [Compound 20], for which, at Recombinant human GCPII (setting [1]), the inhibition at 20 µM worked out at 8%.

With `O=C(O)CSc1nc2ccccc2n1CC(=O)O` [Compound 21], the inhibition at 20 µM at Recombinant human GCPII (setting [1]) turned out to be 1%. Turning to `CC(C)(CC(=O)Nc1scc(-c2cccs2)c1C(=O)O)CC(=O)Nc1scc(-c2cccs2)c1C(=O)O` [Compound 22], at Recombinant human GCPII (setting [1]), the “Inhibition [%] of GCPII activity” value was 38% and the inhibition at 20 µM is over 25%.

For the compound `O=C(O)CSc1ncccc1C(=O)O` [Compound 23], on Recombinant human GCPII (setting [1]), the inhibition at 20 µM is 11%. On to `O=C(O)c1cc(C(=O)O)c(C(=O)O)cc1C(=O)O` [Compound 24], for which, at Recombinant human GCPII (setting [1]), the “Inhibition [%] of GCPII activity” value amounted to 33% and the inhibition at 20 µM is over 25%. Consider `O=C(O)CN1CCC(C(=O)O)CC1` [Compound 25], for which the inhibition at 20 µM at Recombinant human GCPII (setting [1]) was determined as 0%. On the same count and under the same terms, the value for `CC(C)(CC(=O)Nc1scc(-c2ccccc2)c1C(=O)O)CC(=O)Nc1scc(-c2ccccc2)c1C(=O)O` [Compound 26] was 18%; that for `O=C(O)CCN(CCC(=O)O)c1ccc(/C=C/c2ccnc3ccccc23)cc1` [Compound 27] was 18%. With `Nc1cc(N)c(C(=O)O)cc1C(=O)O` [Compound 28], on Recombinant human GCPII (setting [1]), the “Inhibition [%] of GCPII activity” value amounted to 29% and the inhibition at 20 µM is over 25%. Consider `Cc1cc(-c2ccc(NC(=O)CCC(=O)O)c(C)c2)ccc1NC(=O)CCC(=O)O` [Compound 29], for which, on Recombinant human GCPII (setting [1]), the inhibition at 20 µM amounted to 0%. As to `O=C(NCCCCCCNC(=O)[C@H]1CCCC[C@H]1C(=O)O)[C@H]1CCCC[C@H]1C(=O)O` [Compound 30], the inhibition at 20 µM on Recombinant human GCPII (setting [1]) came to 0%.

As for `O=C(O)c1ccc(CNCc2ccccc2C(=O)O)cc1` [Compound 31], the inhibition at 20 µM at Recombinant human GCPII (setting [1]) turned out to be 8%. On the same count and under the same terms, in the case of `O=C(O)CN[S@TB17](=O)(=O)c1cccc(C(=O)O)c1` [Compound 32] it was 1%; in that of `O=C(O)CNc1ccc(C(=O)O)cc1` [Compound 33], 0%. As to `O=C(O)c1ccccc1NC(=O)[C@@H](O)[C@H](O)C(=O)O` [Compound 34], on Recombinant human GCPII (setting [1]), the inhibition at 20 µM is 2%. `O=C(O)CCCC(=O)Nc1cccc(C(=O)O)c1` [Compound 35]: the inhibition at 20 µM at Recombinant human GCPII (setting [1]) was 1%. Still for that read-out and setting: the value for `O=C(O)c1ccc(C(=O)NCCc2ccccc2)c(C(=O)O)c1` [Compound 36] was 3%; that for `O=C(O)c1ccc(C(=O)NCc2ccccc2)c(C(=O)O)c1` [Compound 37] was 1%; that for `CC(=O)c1ccc(NC(=O)c2ccc(C(=O)O)cc2C(=O)O)cc1` [Compound 38] was 0%. For `CCCCc1ccc(NC(=O)c2ccc(C(=O)O)cc2C(=O)O)cc1` [Compound 39], the inhibition at 20 µM at Recombinant human GCPII (setting [1]) was determined as 10%. Consider `O=C(O)c1ccc(C(=O)Nc2cc(Cl)ccc2Cl)c(C(=O)O)c1` [Compound 40], for which the inhibition at 20 µM on Recombinant human GCPII (setting [1]) amounted to 4%. Still for that read-out and setting: in the case of `O=C(O)c1ccc(C(=O)Nc2ccc(Oc3ccccc3)cc2)c(C(=O)O)c1` [Compound 41] it was 0%; in that of `COc1ccc([S@TB4](=O)(=O)Oc2ccc(C(=O)O)cc2)cc1` [Compound 42], 1%.

Regarding `O=[N+]([O-])c1ccc([S@TB4](=O)(=O)Oc2cccc(O[S@TB17](=O)(=O)c3ccc([N+](=O)[O-])cc3)c2)cc1` [Compound 43], the inhibition at 20 µM on Recombinant human GCPII was 1%. On to `COc1cc(C(=O)O)ccc1O[S@TB17](=O)(=O)c1ccc(F)cc1` [Compound 44], for which the inhibition at 20 µM at Recombinant human GCPII (setting [1]) stood at 0%. Take `O=C(O)c1ccc(CN2CC(C(=O)O)CC2=O)cc1` (stereo not shown) [Compound 45]: at Recombinant human GCPII (setting [1]), the “Inhibition [%] of GCPII activity” value is reported as 1%.

Turning to `Cc1c(C)c(CC(C(=O)O)C(=O)O)c(C)c(C)c1CC(C(=O)O)C(=O)O` [Compound 47], at Recombinant human GCPII (setting [1]), the inhibition at 20 µM was 24%.

Consider `O=C(/C=C/c1ccccc1)Oc1cc([S@TB3](=O)(=O)O)cc2cc([S@TB3](=O)(=O)O)ccc12` [Compound 48], for which the inhibition at 20 µM on Recombinant human GCPII (setting [1]) is 16%. Same read-out and setting: in the case of `CCCCc1nc(Cl)c(C(=O)O)n1Cc1ccc(-c2ccccc2-c2nnn[nH]2)s1` [Compound 49] it was 15%. Consider `O=[N+]([O-])c1ccc([S@TB4](=O)(=O)Oc2ccc(O[S@TB17](=O)(=O)c3ccc([N+](=O)[O-])cc3)c(Br)c2)cc1` [Compound 50], for which the inhibition at 20 µM on Recombinant human GCPII stood at 1%.
